Data set [1] is described as follows: PK in rats, intravenous administration. Format: in vivo. The following applies: male, Sprague-Dawley; for AUC / half-life: rat plasma; for clearance / Vd: plasma, rat; for Vd: read-out: Vdss. Here is the method:
(§1) Pharmacokinetic parameters were determined in male Sprague Dawley rats (Charles River, UK, 250-300 g; or Vital River Laboratory Animal Technology Co Ltd, Beijing, China, 7-9 weeks old). Animals were individually housed during the study and maintained under a 12 h light/dark cycle. Animals had free access to food and water, except that orally dosed animals were food deprived overnight prior to the study. For intravenous administration, compounds were formulated as a solution in DMSO:PBS [10:90] in 2 mL/kg dosing volume and administered via tail vein. For oral administration, compounds were formulated as a solution in DMSO:water [10:90] in 5 mL/kg dosing volume and administered orally. Serial blood samples (about 200-230 μL) were taken from each animal at each of 8 time-points post dose (0.083, 0.25, 0.5, 1, 2, 4, 8 and 24 h). Samples were held on ice for no longer than 30 minutes before centrifugation (10,000 rpm (8,385 g) for 3 minutes; or 5,696 rpm (3,000 g) for 15 minutes) for plasma generation. Plasma was frozen on dry ice prior to bioanalysis. PK parameters were generated from LC-MS/MS data using Dotmatics or Phoenix WinNonlin 6.3 software.

The target in data set [2] is T1, NLRP3 (Homo sapiens, UniProt Q96P20). In words: THP-1 cells pyroptosis assay (LPS + nigericin, resazurin read-out). Format: cell-based. Also noted: Seed THP-1 cells (25,000 cells/well) containing 1.0 μg/ml LPS; host or cells: THP-1 cells. Conditions: NLRP3 inhibitory activity, 1 μg/ml LPS, 5 μM nigericin. In a few lines: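 THP-1 cells in serum-free RPMI were primed with 1 μg/ml LPS and incubated 3 h at 37° C with compound, then given 5 μM nigericin for 1 h. After supernatant removal, viability was read by 100 μM resazurin over 1-2 h at 37° C.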
T1 sequence (Q96P20 whole entry): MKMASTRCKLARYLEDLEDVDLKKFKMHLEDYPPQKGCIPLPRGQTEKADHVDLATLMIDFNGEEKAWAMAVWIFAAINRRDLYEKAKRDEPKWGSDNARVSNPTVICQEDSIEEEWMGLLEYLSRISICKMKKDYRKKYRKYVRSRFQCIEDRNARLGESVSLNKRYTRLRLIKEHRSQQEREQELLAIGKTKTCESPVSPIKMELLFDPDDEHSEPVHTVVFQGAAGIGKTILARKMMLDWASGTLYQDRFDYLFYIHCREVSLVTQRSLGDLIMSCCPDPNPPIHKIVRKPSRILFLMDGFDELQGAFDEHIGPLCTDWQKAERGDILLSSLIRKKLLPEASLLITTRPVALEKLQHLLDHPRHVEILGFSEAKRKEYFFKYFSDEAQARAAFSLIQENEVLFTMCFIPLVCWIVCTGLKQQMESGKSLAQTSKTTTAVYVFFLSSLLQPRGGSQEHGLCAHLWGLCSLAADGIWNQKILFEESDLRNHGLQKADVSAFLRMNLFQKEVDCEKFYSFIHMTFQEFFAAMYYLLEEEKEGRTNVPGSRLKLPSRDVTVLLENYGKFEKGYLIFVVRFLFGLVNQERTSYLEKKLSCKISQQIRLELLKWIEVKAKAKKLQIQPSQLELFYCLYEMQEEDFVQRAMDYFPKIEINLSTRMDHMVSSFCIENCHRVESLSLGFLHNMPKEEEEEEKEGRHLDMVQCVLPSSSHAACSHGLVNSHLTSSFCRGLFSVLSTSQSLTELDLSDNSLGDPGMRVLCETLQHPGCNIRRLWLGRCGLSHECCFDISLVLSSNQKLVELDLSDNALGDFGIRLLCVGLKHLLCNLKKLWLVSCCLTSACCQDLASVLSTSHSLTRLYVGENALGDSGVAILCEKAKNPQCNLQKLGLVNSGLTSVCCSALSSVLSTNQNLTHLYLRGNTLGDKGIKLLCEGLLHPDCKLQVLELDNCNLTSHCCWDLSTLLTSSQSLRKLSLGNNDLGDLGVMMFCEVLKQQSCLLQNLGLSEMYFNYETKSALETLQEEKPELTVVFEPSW
For orientation: Resazurin is reduced to fluorescent resorufin, in cell work by metabolically active cells.

A short description of data set [3]: PK in rats, oral administration. In kind it is in vivo. The following applies: male, Sprague-Dawley; for AUC / Cmax / Tmax / half-life: rat plasma; for CL/F / bioavailability: plasma, rat. As for the experimental part:
as §1

Data set [4] addresses T1, NLRP3. In words: Human whole blood IL-1β release assay (LPS + nigericin, AlphaLisa). Format: cell-based. Also noted: Human whole blood in Li-heparin tubes was obtained from healthy donors; from tissue; host or cells: human whole blood from healthy donors. The following applies: NLRP3 inhibitory activity, 1 μg/ml LPS, 10 μM nigericin, read-out: HWB IC50. Here is the method: For systemic delivery, the ability to inhibit NLRP3 when the compounds are present within the bloodstream is of great importance. For this reason, the NLRP3 inhibitory activity of a number of compounds in human whole blood was investigated in accordance with the following protocol. Human whole blood in Li-heparin tubes was obtained from healthy donors from a volunteer donor panel. • 1. […] Incubate for 3 hrs at 37° C., 5% CO2 • 4. Add 10 μl nigericin (Sigma #N7143) (10 μM FAC) to all wells • 5. Incubate for 1 hr at 37° C., 5% CO2 • 6. At the end of the incubation period, spin plates at 300×g for 5 mins to pellet cells and remove 20 μl of supernatant and add to 96-well v-bottom plates for IL-1β analysis (note: these plates containing the supernatants can be stored at -80° C. to be analysed at a later date) • 7. IL-1β was measured according to the manufacturer protocol (Perkin Elmer-AlphaLisa IL-1 Kit A[…]-5000) • 8.
A general note: Alpha assays give light when donor and acceptor beads are brought close together.

Where a name gives a salt, the structure may show the parent alone. Read-outs that look alike come from different tables or passages of the source.

Broadly, the AUC is the area under the concentration-time curve, a measure of exposure. Read a high AUC as more exposure. As usually defined, the half-life is the time in which the quantity being followed falls by half. Broadly, the clearance is the rate of elimination divided by the concentration. A lower clearance goes with a low capacity for elimination. Take `[2H]C([2H])([2H])C([2H])(n1ccc(S(=O)(=O)NC(=O)Nc2c3c(cc4c2CCC4)CCC3)n1)C([2H])([2H])[2H]` [Example 20, N-((1,2,3,5,6,7-Hexahydro-s-indacen-4-yl)carbamoyl)-1-(propan-2-yl-d7)-1H-pyrazole-3-sulfonamide, potassium salt]: in data set [1] (1 mg/kg), the AUC came out at 21600 ng·h/mL, the half-life was 4.7 h, the clearance stood at 0.8 mL/min/kg and the Vd came to 0.25 L/kg.
What is called IC50 is the concentration that inhibits the measured activity by half. In general, Cmax refers to the peak of the concentration-time curve. What is called Tmax is the time at which the peak concentration occurs. Broadly, the CL/F is the apparent clearance, not corrected for the fraction that reaches the circulation. A word on the bioavailability: it is dose-corrected exposure relative to a reference, in per cent. Consider `COC(C)(C)c1cc(S(=O)(=O)NC(=O)Nc2c3c(cc4c2CCC4)CCC3)nn1C` [Example 39, N-((1,2,3,5,6,7-Hexahydro-s-indacen-4-yl)carbamoyl)-5-(2-methoxypropan-2-yl)-1-methyl-1H-pyrazole-3-sulfonamide], for which, in data set [1] (3 mg/kg), the AUC is 3840 ng·h/mL, the half-life is 4 h, the clearance was found to be 13.1 mL/min/kg and the Vd was 0.9 L/kg. Besides, the IC50 on NLRP3 [2] was less than 250 nM. In data set [3] (3 mg/kg), the AUC worked out at 3920 ng·h/mL, the peak concentration (Cmax) worked out at 1370 ng/mL, the Tmax is 0.83 h and the half-life is 2.2 h. In data set [3] (3 mg/kg), this molecule yielded a CL/F of 13 mL/min/kg and a bioavailability greater than 100%. On NLRP3 [4], the IC50 lay in the range of 500 to 1000 nM.
As for `CCn1ccc(S(=O)(=O)NC(=O)Nc2c3c(cc4c2CCC4)CCC3)n1` [Example 45, 1-Ethyl-N-((1,2,3,5,6,7-hexahydro-s-indacen-4-yl)carbamoyl)-1H-pyrazole-3-sulfonamide, sodium salt], at NLRP3 [2], the IC50 is less than 250 nM. Moreover, in data set [3] (3 mg/kg), the AUC came to 61600 ng·h/mL, the Cmax was determined as 7900 ng/mL, the Tmax was found to be 2 h and the half-life is 2.5 h. Also, in data set [3] (3 mg/kg), the CL/F came to 0.8 mL/min/kg. Moreover, the IC50 on NLRP3 [4] fell in the range of 1000 to 5000 nM.
For `CC(C)n1cnc(S(=O)(=O)NC(=O)Nc2c3c(cc4c2CCC4)CCC3)n1` [Example 46, N-((1,2,3,5,6,7-Hexahydro-s-indacen-4-yl)carbamoyl)-1-isopropyl-1H-1,2,4-triazole-3-sulfonamide, sodium salt], in data set [1] (1 mg/kg), the AUC came to 10000 ng·h/mL, the half-life was 4 h, the clearance turned out to be 1.7 mL/min/kg and the Vd is 0.45 L/kg. The IC50 at NLRP3 [2] is 250 to 500 nM. Further, on NLRP3 [4], the IC50 fell in the range of 500 to 1000 nM.
In the case of `COC1(c2cc(S(=O)(=O)NC(=O)Nc3c4c(cc5c3CCC5)CCC4)nn2C)CCC1` [Example 51, N-((1,2,3,5,6,7-Hexahydro-s-indacen-4-yl)carbamoyl)-5-(1-methoxycyclobutyl)-1-methyl-1H-pyrazole-3-sulfonamide], in data set [1] (1 mg/kg), the AUC came to 4870 ng·h/mL, the half-life is 1 h, the clearance came to 3.4 mL/min/kg and the Vd is 0.29 L/kg. Further, the IC50 on NLRP3 [2] is less than 250 nM. The IC50 at NLRP3 [4] fell in the range of 250 to 500 nM.
Take `CN(C)Cc1ccc(S(=O)(=O)NC(=O)Nc2c3c(cc4c2CCC4)CCC3)cc1` [Example 66, 4-((Dimethylamino)methyl)-N-((1,2,3,5,6,7-hexahydro-s-indacen-4-yl)carbamoyl)benzenesulfonamide, sodium salt]: the values for the IC50 at NLRP3 [2] and at NLRP3 [4] were less than 250 nM and 250 to 500 nM, respectively.
The like results for `O=C(Nc1c2c(cc3c1CCO3)CCC2)NS(=O)(=O)c1ccn(C2CC2)n1` [Example 67, 1-Cyclopropyl-N-((3,5,6,7-tetrahydro-2H-indeno[5,6-b]furan-4-yl)carbamoyl)-1H-pyrazole-3-sulfonamide] were, in that order, less than 250 nM and 1000 to 5000 nM.
The like results for `CC(C)c1cccc(C(C)C)c1NC(=O)NS(=O)(=O)c1cnn(C(C)C)c1` [Example 69, N-((2,6-Diisopropylphenyl)carbamoyl)-1-isopropyl-1H-pyrazole-4-sulfonamide] were, in that order, 500 to 1000 nM and 1000 to 5000 nM.
Regarding `CC(C)c1cc(C#N)cc(C(C)C)c1NC(=O)NS(=O)(=O)c1cc(C(C)(C)O)n(C)n1` [Example 71, N-((4-Cyano-2,6-diisopropylphenyl)carbamoyl)-5-(2-hydroxypropan-2-yl)-1-methyl-1H-pyrazole-3-sulfonamide], the values for the IC50 on NLRP3 [2] and at NLRP3 [4] were 500 to 1000 nM and 1000 to 5000 nM, respectively.
As to `CC(C)c1cc(C#N)cc(C(C)C)c1NC(=O)NS(=O)(=O)c1ccn(C(C)C)n1` [Example 72, N-((4-Cyano-2,6-diisopropylphenyl)carbamoyl)-1-isopropyl-1H-pyrazole-3-sulfonamide], the values for the IC50 at NLRP3 [2] and at NLRP3 [4] were 1000 to 5000 nM and 5000 to 10000 nM, respectively.
On the same counts, the results for `CC(C)c1cc(F)cc(C(C)C)c1NC(=O)NS(=O)(=O)c1ccn(C(C)C)n1` [Example 77, N-((4-Fluoro-2,6-diisopropylphenyl)carbamoyl)-1-isopropyl-1H-pyrazole-3-sulfonamide, sodium salt] are 1000 to 5000 nM and 5000 to 10000 nM.
For `COC(C)(C)c1cc(S(=O)(=O)NC(=O)Nc2c(C(C)C)cccc2C(C)C)nn1C` [Example 81, N-((2,6-Diisopropylphenyl)carbamoyl)-5-(2-methoxypropan-2-yl)-1-methyl-1H-pyrazole-3-sulfonamide], the 50% inhibitory concentration (IC50) at NLRP3 [2] and at NLRP3 [4] was 250 to 500 nM each time.
Turning to `COC(C)(C)c1cc(S(=O)(=O)NC(=O)Nc2c(C(C)C)cc(F)cc2C(C)C)nn1C` [Example 82, N-((4-Fluoro-2,6-diisopropylphenyl)carbamoyl)-5-(2-methoxypropan-2-yl)-1-methyl-1H-pyrazole-3-sulfonamide], the values for the IC50 on NLRP3 [2] and at NLRP3 [4] were 250 to 500 nM and 500 to 1000 nM, respectively.
`COC(C)(C)c1cc(S(=O)(=O)NC(=O)Nc2c(C(C)C)cc(Cl)cc2C(C)C)nn1C` [Example 83, N-((4-Chloro-2,6-diisopropylphenyl)carbamoyl)-5-(2-methoxypropan-2-yl)-1-methyl-1H-pyrazole-3-sulfonamide]: in data set [1] (1 mg/kg), the AUC was 1130 ng·h/mL, the half-life is 3.9 h, the clearance stood at 14.8 mL/min/kg and the Vd turned out to be 2.23 L/kg. For the same molecule, the IC50 at NLRP3 [2] was less than 250 nM. Moreover, in data set [3] (1.3 mg/kg), the AUC was determined as 2750 ng·h/mL, the peak level (Cmax) was 468 ng/mL, the Tmax was 3.17 h and the half-life was 3.7 h. In data set [3] (1.3 mg/kg), the CL/F came out at 8.5 mL/min/kg and the bioavailability was greater than 100%. For the same molecule, the IC50 at NLRP3 [4] lay in the range of 1000 to 5000 nM.
Turning to `Cn1nc(S(=O)(=O)NC(=O)Nc2c3c(cc4c2CCC4)CCC3)cc1CO` [Example 84, N-((1,2,3,5,6,7-Hexahydro-s-indacen-4-yl)carbamoyl)-5-(hydroxymethyl)-1-methyl-1H-pyrazole-3-sulfonamide], the IC50 was 250 to 500 nM at NLRP3 [2] and 500 to 1000 nM on NLRP3 [4].

The record behind these values is patent publication US20220106289A1, “NLRP3 INHIBITORS” (INFLAZOME LIMITED, priority 2018, published 2022).
